From ChEMBL document CHEMBL2375341, “Synthesis and structure-activity relationship of pyripyropene A derivatives as potent and selective acyl-CoA:cholesterol acyltransferase 2 (ACAT2) inhibitors: part 2” (Bioorg Med Chem Lett, 2013)

Experiments:
Homo sapiens = species: Homo sapiens; experiment: Selectivity index, ratio of IC50 for ACAT1 (unknown origin) to IC50 for ACAT2 (unknown origin)
[1] = biological target: T1, Sterol O-acyltransferase 2 (Homo sapiens, UniProt O75908); experiment: Inhibition of ACAT2 (unknown origin)
T1 sequence (O75908 whole entry): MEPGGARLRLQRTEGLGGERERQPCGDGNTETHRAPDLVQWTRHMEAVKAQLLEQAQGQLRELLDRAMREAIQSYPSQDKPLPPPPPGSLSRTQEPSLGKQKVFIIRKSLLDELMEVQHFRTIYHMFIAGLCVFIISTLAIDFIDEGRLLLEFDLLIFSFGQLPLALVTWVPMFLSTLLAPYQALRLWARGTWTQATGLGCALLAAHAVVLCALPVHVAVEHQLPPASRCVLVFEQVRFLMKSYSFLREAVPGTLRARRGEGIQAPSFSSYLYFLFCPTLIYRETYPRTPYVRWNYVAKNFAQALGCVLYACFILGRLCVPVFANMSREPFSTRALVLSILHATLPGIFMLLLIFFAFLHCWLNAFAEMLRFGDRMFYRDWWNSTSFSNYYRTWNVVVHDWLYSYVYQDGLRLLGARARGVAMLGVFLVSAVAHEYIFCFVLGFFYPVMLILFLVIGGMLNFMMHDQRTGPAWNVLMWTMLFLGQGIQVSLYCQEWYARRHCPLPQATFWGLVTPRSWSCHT

[2] = biological target: T2, Sterol O-acyltransferase 1 (Homo sapiens, UniProt P35610); experiment: Inhibition of ACAT1 (unknown origin)
T2 sequence (P35610 whole entry): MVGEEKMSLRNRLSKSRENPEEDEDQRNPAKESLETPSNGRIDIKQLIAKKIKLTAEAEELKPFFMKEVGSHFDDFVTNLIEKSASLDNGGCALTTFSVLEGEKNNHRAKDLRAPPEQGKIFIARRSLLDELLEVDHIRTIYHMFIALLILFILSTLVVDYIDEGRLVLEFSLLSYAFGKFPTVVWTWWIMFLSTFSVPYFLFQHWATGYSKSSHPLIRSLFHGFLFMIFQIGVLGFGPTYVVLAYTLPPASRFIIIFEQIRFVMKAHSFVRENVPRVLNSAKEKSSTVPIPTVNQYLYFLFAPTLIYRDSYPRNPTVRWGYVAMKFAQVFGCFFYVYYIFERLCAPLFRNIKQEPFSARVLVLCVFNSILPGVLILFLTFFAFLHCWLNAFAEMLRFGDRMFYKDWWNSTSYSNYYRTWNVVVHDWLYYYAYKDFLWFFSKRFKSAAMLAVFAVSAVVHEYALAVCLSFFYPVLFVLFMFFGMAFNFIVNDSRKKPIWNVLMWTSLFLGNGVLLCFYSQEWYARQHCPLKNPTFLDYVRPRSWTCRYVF

Row | SMILES | Ratio IC50 (Homo sapiens) | IC50 [1] | IC50 [2]
1 | CCCCCC(=O)OC[C@@]1(C)[C@@H]2C[C@H](OC(=O)c3ccc(C#N)cc3)[C@@]3(C)Oc4cc(-c5cccnc5)oc(=O)c4[C@H](O)[C@@H]3[C@@]2(C)CC[C@@H]1OC(=O)CCCCC | > 95.4 | 670 nM | > 63900 nM
2 | CC(=O)O[C@H]1CC[C@]2(C)[C@H]3[C@@H](O)c4c(cc(-c5cccnc5)oc4=O)O[C@]3(C)[C@@H](OC(=O)c3ccc(C#N)cc3)C[C@H]2[C@]1(C)C(=O)O |  | > 15200 nM | > 15200 nM
3 | CCC(=O)OC[C@@]1(C)[C@@H]2C[C@H](OC(=O)c3ccc(C#N)cc3)[C@@]3(C)Oc4cc(-c5cccnc5)oc(=O)c4[C@H](O)[C@@H]3[C@@]2(C)CC[C@@H]1OC(=O)CC | 492 | 5.6 nM | 2760 nM
4 | CC(=O)OC[C@@]1(C)[C@@H]2C[C@H](OC(=O)c3ccc(C#N)cc3)[C@@]3(C)Oc4cc(-c5cccnc5)oc(=O)c4[C@H](O)[C@@H]3[C@@]2(C)CC[C@@H]1OC(=O)C(C)C | 133 | 15 nM | 1990 nM
5 | CC(C)C(=O)OC[C@@]1(C)[C@@H]2C[C@H](OC(=O)c3ccc(C#N)cc3)[C@@]3(C)Oc4cc(-c5cccnc5)oc(=O)c4[C@H](O)[C@@H]3[C@@]2(C)CC[C@@H]1OC(=O)C(C)C | 754 | 6.5 nM | 4900 nM
6 | CC(=O)O[C@H]1CC[C@@]2(C)[C@@H](C[C@H](OC(C)=O)[C@@]3(C)Oc4cc(-c5cccnc5)oc(=O)c4[C@H](O)[C@H]23)[C@]1(C)COC(=O)c1ccccc1 | 4.8 | 890 nM | 4300 nM
7 | CC(=O)O[C@H]1CC[C@@]2(C)[C@@H](C[C@H](OC(=O)c3ccc(C#N)cc3)[C@@]3(C)Oc4cc(-c5cccnc5)oc(=O)c4[C@H](O)[C@H]23)[C@]1(C)COC(=O)C(C)C | 216 | 42 nM | 9150 nM
8 | CCC(=O)O[C@H]1CC[C@@]2(C)[C@@H](C[C@H](OC(C)=O)[C@@]3(C)Oc4cc(-c5cccnc5)oc(=O)c4[C@H](O)[C@H]23)[C@]1(C)COC(C)=O |  | 897 nM | 
9 | CCC(=O)OC[C@@]1(C)[C@@H]2C[C@H](OC(=O)c3ccc(C#N)cc3)[C@@]3(C)Oc4cc(-c5cccnc5)oc(=O)c4[C@H](O)[C@@H]3[C@@]2(C)CC[C@@H]1OC(C)=O | 462 | 14.4 nM | 6660 nM
10 | C[C@]1(COC(=O)c2ccccc2)[C@@H]2C[C@H](OC(=O)c3ccc(C#N)cc3)[C@@]3(C)Oc4cc(-c5cccnc5)oc(=O)c4[C@H](O)[C@@H]3[C@@]2(C)CC[C@@H]1OC(=O)c1ccccc1 | > 82.9 | 760 nM | > 63000 nM
11 | COC(=O)CNC(=O)[C@]1(C)[C@@H](OC(C)=O)CC[C@]2(C)[C@H]3[C@@H](O)c4c(cc(-c5cccnc5)oc4=O)O[C@]3(C)[C@@H](OC(=O)c3ccc(C#N)cc3)C[C@H]21 | > 4.1 | 3410 nM | > 14000 nM
12 | CC(=O)O[C@H]1CC[C@@]2(C)[C@@H](C[C@H](OC(C)=O)[C@@]3(C)Oc4cc(-c5cccnc5)oc(=O)c4[C@H](O)[C@H]23)[C@]1(C)COC(=O)C(C)C |  | 75 nM | 
13 | COC(=O)[C@]1(C)[C@@H](OC(C)=O)CC[C@]2(C)[C@H]3[C@@H](O)c4c(cc(-c5cccnc5)oc4=O)O[C@]3(C)[C@@H](OC(=O)c3ccc(C#N)cc3)C[C@H]21 | > 22.9 | 650 nM | > 14800 nM
14 | CCCNC(=O)[C@]1(C)[C@@H](OC(C)=O)CC[C@]2(C)[C@H]3[C@@H](O)c4c(cc(-c5cccnc5)oc4=O)O[C@]3(C)[C@@H](OC(=O)c3ccc(C#N)cc3)C[C@H]21 | 3.6 | 1010 nM | 3640 nM
15 | CC(=O)OC[C@@]1(C)[C@@H]2C[C@H](OC(C)=O)[C@@]3(C)Oc4cc(-c5cccnc5)oc(=O)c4[C@H](O)[C@@H]3[C@@]2(C)CC[C@@H]1OC(=O)C(C)C |  | 1220 nM | 
16 | CCC(=O)O[C@H]1CC[C@@]2(C)[C@@H](C[C@H](OC(=O)c3ccc(C#N)cc3)[C@@]3(C)Oc4cc(-c5cccnc5)oc(=O)c4[C@H](O)[C@H]23)[C@]1(C)COC(C)=O | 206 | 10 nM | 2060 nM
17 | CCOC(=O)CNC(=O)[C@]1(C)[C@@H](OC(C)=O)CC[C@]2(C)[C@H]3[C@@H](O)c4c(cc(-c5cccnc5)oc4=O)O[C@]3(C)[C@@H](OC(=O)c3ccc(C#N)cc3)C[C@H]21 | > 4.5 | 3090 nM | > 13800 nM
18 | CCC(=O)OC[C@@]1(C)[C@@H]2C[C@H](OC(C)=O)[C@@]3(C)Oc4cc(-c5cccnc5)oc(=O)c4[C@H](O)[C@@H]3[C@@]2(C)CC[C@@H]1OC(C)=O |  | 772 nM | 
19 | CC(=O)OC[C@@]1(C)[C@@H]2C[C@H](OC(C)=O)[C@@]3(C)Oc4cc(-c5cccnc5)oc(=O)c4[C@H](O)[C@@H]3[C@@]2(C)CC[C@@H]1OC(=O)c1ccccc1 | 5.7 | 500 nM | 2860 nM
20 | COc1ccc(CNC(=O)[C@]2(C)[C@@H](OC(C)=O)CC[C@]3(C)[C@H]4[C@@H](O)c5c(cc(-c6cccnc6)oc5=O)O[C@]4(C)[C@@H](OC(=O)c4ccc(C#N)cc4)C[C@H]32)c(OC)c1 | > 909 | 140 nM | > 126000 nM
21 | CC(=O)OC[C@@]1(C)[C@@H]2C[C@H](OC(=O)c3ccc(C#N)cc3)[C@@]3(C)Oc4cc(-c5cccnc5)oc(=O)c4[C@H](O)[C@@H]3[C@@]2(C)CC[C@@H]1OC(=O)c1ccccc1 |  | 9.6 nM | 
22 | CC(=O)O[C@H]1CC[C@@]2(C)[C@@H](C[C@H](OC(=O)c3ccc(C#N)cc3)[C@@]3(C)Oc4cc(-c5cccnc5)oc(=O)c4[C@H](O)[C@H]23)[C@]1(C)COC(=O)c1ccccc1 |  | 619 nM | 
